Experimental data from paper PMC6749364, “Pharmacokinetics and Tissue Distribution of Alnustone in Rats after Intravenous Administration by Liquid Chromatography-Mass Spectrometry” (Molecules, 2019).

Experiments:
[1] = Plasma pharmacokinetic study after single intravenous administration; assay type: in vivo; settings: Sprague-Dawley, rat, rats, single i.v. 5 mg/kg
Experimental: In this study, a direct protein precipitation method was applied to extract alnustone and IS from the biological matrix. An aliquot 100 μL of plasma, 50 μL of IS solution (1 μg/mL) and 200 μL of precipitate agent acetonitrile with 0.5% formic acid was added into a 1.5 mL Eppendorf tube. The mixture was vortex-mixed for 30 s at room temperature, and centrifuged at 12,000× g for 10 min. […] The residuals were reconstituted in 100 μL of methanol-0.1% fomic acid water (20:80, v/v) by vortex mixing for 30 s. After centrifuging at 12,000× g for 10 min, a 10 μL aliquot of the supernatant was used for the UHPLC-MS/MS analysis. The mobile phase consisted of methanol and 0.1% formic acid water using a gradient dilution at a flow rate of 0.3 mL/min. The column temperature was maintained at 30 °C. Alnustone was quantitatively determined with MRM in the positive ion mode, and nitrogen was used to assist nebulization in the ESI source. The MS parameters were set as follows: The ionspray voltage (IS) 5500 V; nebulizer gas (gas 1) 19 arbitrary units; curtain gas (CUR) 10 arbitrary units; collision cell exit potential (CXP) 7.0 V; entrance potential (EP) 10.0 V. The optimization of the MS transitions using the multiple-reaction monitoring (MRM) mode were accomplished as alnustone m/z 262.9→105.2 and IS (caffeine) m/z 195.2→138.0, respectively. For the pharmacokinetic study, 12 SD rats fasted for 12 h with free access to water prior to administration. After the rats were tail intravenously administrated of alnustone (5 mg/kg), a blood sample (0.4 mL) was collected from the orbital vein into heparinized tubes at appropriate time intervals (2 min, 5 min, 10 min, 15 min, 30 min, 45 min, 1 […]). The blank plasma samples were prepared before dosing. All blood samples were immediately centrifuged at 12,000× g for 10 min and stored at -75 °C until analysis. The pharmacokinetic parameters were evaluated using DAS 3.2.8 pharmacokinetic program.

neuraminidase = system: neuraminidase; set-up: method as in PMID 20014777; settings: cited from earlier work
[2] = system: Bel-7402 (human hepatocellular carcinoma cells); set-up: method as in earlier work; settings: Bel-7402 cell line; cited from earlier work

SMILES: O=C(/C=C/C=C/c1ccccc1)CCc1ccccc1 [alnustone, Alnustone]
- Tmax [1]: 2 min
- AUC(0-inf) ([1]; n = 12): 6030 ± 472 ng·h/mL
- Cmax ([1]; n = 12): 7070 ± 821 ng/mL
- Vd ([1]; n = 12): 1.57 ± 0.18 L/kg
- clearance ([1]; n = 12): 13.8 mL/min/kg
- half-life ([1]; n = 12): 1.31 ± 0.19 h
- MRT inf ([1]; n = 12, read-out: MRT0–∞): 1.6 ± 0.22 h
- MRT last ([1]; read-out: MRT0-t (total mean residence time up to 10 h)): 1.6 ± 0.22 h
- AUC(0-t) ([1]; up to 10 h, n = 12): 6010 ± 567 ng·h/mL
- neuraminidase inhibitory activity (neuraminidase): showed neuraminidase inhibitory activity
- antitumor activity in vitro [2]: significant antitumor activity
